In ChEMBL document CHEMBL3297673, “Antifungal amphidinol 18 and its 7-sulfate derivative from the marine dinoflagellate Amphidinium carterae” (J Nat Prod, 2014) one finds Activity and MIC data, which are given here for two molecules.

Converted amounts (≈) assume the structure as drawn. The source made the active and inactive calls. The rule behind the calls is not given here.

The subject of one data set is Candida albicans. The experiment in a line: Antifungal activity against Candida albicans after 48 hrs by broth microdilution method. It is filed as functional. In general terms: In broth dilution the organism is exposed to a series of concentrations in liquid medium.
A short description of data set [1]: Toxicity in erythrocytes (unknown origin) assessed as hemolytic activity. It is filed as cell-based. Particulars: erythrocyte.

The term MIC denotes the least concentration at which growth counts as inhibited. The low end stands for greater potency, the high end for weaker potency.

Turning to `C=C/C=C/CC/C=C/C=C/C=C/CC/C=C/[C@H](O)[C@H](O)[C@@H]1O[C@@H]([C@H](O)[C@H](O)C(=C)CC[C@@H](O)[C@H]2C[C@@H](O)[C@@H](O)[C@H]([C@@H](O)[C@H](O)/C=C(\C)CCC(O)CC(O)C(O)C(C)CC(O)C(O)CC(C)CCC(O)CC(=O)CC(O)CCCC(CCCCC(O)CO)OS(=O)(=O)[O-])O2)C[C@@H](O)[C@H]1O.[Na+]` (some centres undefined), in the data set on Candida albicans, the outcome was inactive. Further, the Activity entry in data set [1] is given as “Toxic”.

Turning to `C=C/C=C/CC/C=C/C=C/C=C/CC/C=C/[C@H](O)[C@H](O)[C@@H]1O[C@@H]([C@H](O)[C@H](O)C(=C)CC[C@@H](O)[C@H]2C[C@@H](O)[C@@H](O)[C@H]([C@@H](O)[C@H](O)/C=C(\C)CCC(O)CC(O)C(O)C(C)CC(O)C(O)CC(C)CCC(O)CC(=O)CC(O)CCCC(O)CCCCC(O)CO)O2)C[C@@H](O)[C@H]1O` (some centres undefined), it took 9 µg/mL (≈ 6.62 µM) to inhibit growth against Candida albicans (MIC). Moreover, the Activity entry in data set [1] was “Toxic”.
